Measurements from patent US7858084B2, “Methods of treatment with renalase (monoamine oxidase C)” (Yale University, priority 2005, dated 2010).
Like-named read-outs stand apart in the source and are kept apart here.

Legend:
[1] = biological target: renalase (Rattus norvegicus, UniProt Q5U2W9); details: CKD rats compared with control rats
[2] = tested on: renalase
Protocol: Horizontal bars at top of figure indicate period of 5 minute epinephrine infusions.

Sequence of renalase (Rattus norvegicus, UniProt Q5U2W9) (Q5U2W9 18-315): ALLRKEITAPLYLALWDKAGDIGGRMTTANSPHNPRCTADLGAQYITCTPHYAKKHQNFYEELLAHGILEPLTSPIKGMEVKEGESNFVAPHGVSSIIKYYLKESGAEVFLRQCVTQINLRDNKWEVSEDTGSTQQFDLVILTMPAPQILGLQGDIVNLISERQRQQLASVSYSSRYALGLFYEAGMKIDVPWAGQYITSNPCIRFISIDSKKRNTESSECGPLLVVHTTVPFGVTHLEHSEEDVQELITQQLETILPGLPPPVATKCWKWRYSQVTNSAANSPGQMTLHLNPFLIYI

CNC[C@H](O)c1ccc(O)c(O)c1 [epinephrine]
magnitude and duration of blood renalase activation [1]: significantly lower
renalase protein levels in blood ([2]; second administration 30 minutes later): only a modest decline
renalase protein levels in blood ([2]; shortly after an initial infusion of epinephrine): drop significantly
renalase protein levels in blood ([2]; within ten minutes of the initial infusion): recover and exceed initial protein levels
